In patent publication US5262417A, “Antibacterial quinolone compounds” (The Upjohn Company, priority 1991, dated 1993):

Legend:
Format in all cases: cell-based
[1] = test system: gram negative and positive; experiment: Compound 10 compared to ciprofloxacin, overall activity; conditions: compared with ciprofloxacin
[2] = test system: Escherichia coli UC 51 (EC); experiment: Dip disk (disk-diffusion) assay, disks loaded with 0.05 ml; conditions: 0.1 mcg/ml, 0.05 ml per disk
Description: (§1) The effectiveness of the subject compounds on bacteria were obtained by performing a dip disk assay. The antibacterial activity of the compounds was determined by the disk-diffusion method. Paper disks (12.7 mm) were loaded with 0.05 ml of drug solution prepared at a concentration of 0.1 mcg/ml; the disks were allowed to air dry. They were then applied to the surface of microorganism-seeded agar assay trays, which contained the bacterial strain Pseudomonas aeruginosa UC 95 (PA), Escherichia coli UC 51 (EC), Klebsiella pneumoniae UC 57 (KP), or Staphylococcus aureus UC 80 (SA). The assay trays were incubated overnight under aerobic condition to allow for the growth of the organisms. Zones of growth inhibition due to the action of the antibiotic were then measured to the nearest millimeter.
(§2) The effectiveness of additional compounds 5-9, (5-7 are Formula IAa compounds and 8 and 9 are Formula IAb compounds) on bacteria were obtained by performing a dip disk assay as described above. The antibacterial activity of the compounds was determined by the disk-diffusion method where the disks were loaded with 0.05 ml of drug solution prepared at a concentration of 1.0 mcg/ml; the disks were allowed to air dry.

[3] = test system: Pseudomonas aeruginosa UC 95 (PA); experiment: as above; conditions: 0.1 mcg/ml, 0.05 ml per disk
Description: as §1, §2

[4] = test system: Staphylococcus aureus UC 80 (SA); experiment: as above; conditions: 0.1 mcg/ml, 0.05 ml per disk
Description: as §1, §2

[5] = test system: Klebsiella pneumoniae UC 57 (KP); experiment: as above; conditions: 0.1 mcg/ml, 0.05 ml per disk
Description: as §1, with “Paper disks (12.7 mm) were loaded with 0.05 ml of drug solution prepared at a concentration of 0.1 mcg/ml; the disks were allowed to air dry.” left out, “millimeter. […]” for “millimeter.”

[6] = test system: Escherichia coli UC 51 (EC); experiment: Dipped disk (disk-diffusion) assay, disks loaded with 0.10 ml; conditions: 0.10 ml per disk
Description: (§3) The effectiveness of the subject compounds on some bacteria were obtained by performing a dipped disk assay. The antibacterial activity of the compounds is determined by the disk-diffusion method. […] They were then applied to the surface of microorganism-seeded agar assay trays, which contained the bacterial strain Pseudomonas aeruginosa UC 95 )PA), Escherichia coli UC 51 (EC) or Staphylococcus aureus UC 80 (SA). The assay trays were incubated overnight under aerobic condition to allow for the growth of the organisms. Zones of growth inhibition due to the action of the antibiotic were then measured to the nearest millimeter.

[7] = test system: Pseudomonas aeruginosa UC 95 (PA); experiment: as above; conditions: Conc 0.1 mg/ml, 0.10 ml per disk
Description: as §3

[8] = test system: Staphylococcus aureus UC 80 (SA); experiment: as above; conditions: 0.10 ml per disk
Description: as §3

[9] = test system: Gram-positive and Gram-negative bacteria; experiment: Dipped disk assay, overall antibacterial activity (Formula IB)
Description: The effectiveness of the subject compounds on some bacteria were obtained by performing a dipped disk assay. The antibacterial activity of the compounds is determined by the disk-diffusion method. Paper disks (12.7 mm) were loaded with 0.10 ml of drug solution prepared at a concentration of 1 and 0.1 mcg/ml; the disks were allowed to air dry. They were then applied to the surface of microorganism-seeded agar assay trays, which contained the bacterial strain Pseudomonas aeruginosa UC 95 )PA), Escherichia coli UC 51 (EC) or Staphylococcus aureus UC 80 (SA). The assay trays were incubated overnight under aerobic condition to allow for the growth of the organisms. Zones of growth inhibition due to the action of the antibiotic were then measured to the nearest millimeter.

## COC(=O)/C=C(/NC1CCN(c2c(F)cc3c(=O)c(C(=O)O)cn(C4CC4)c3c2F)C1)C(=O)OC (stereo not drawn) [Compound 10, 2-[4-(3-carboxy-1-cyclopropyl-6,8-difluoro-1,4-dihydro-4-oxo-7-quinolinyl)-1-(3-aminopyrrolidinyl)]-2-butenedioic acid-(E)-1,4-dimethyl ester]
[1]
  gram negative and positive activity (in words): gram negative and positive activity greatly increased over that of ciprofloxacin

## 2-[4-(1-Ethyl-3-carboxy-6-fluoro-1,4-dihydro-4-oxo-7-quinolinyl)-1-piperizinyl]2-butanedioic acid, dimethyl ester [Compound 2]
[2]
  Growth Inhibition Zone, EC: 23 millimeter
[3]
  Growth Inhibition zone, PA: 25 millimeter
[4]
  Growth Inhibition Zone, SA: 21 millimeter
[5]
  Growth Inhibition zone, KP: 25 millimeter
[6]; Conc 0.1 mg/ml
  Growth Inhibition Zone, EC: 30 mm
[6]; Conc 1 mg/ml
  Growth Inhibition Zone, EC: 30 mm
[7]
  Growth Inhibition zone, PA: 35 mm
[8]; Conc 0.1 mg/ml
  Growth Inhibition Zone, SA: 25 mm
[8]; Conc 1 mg/ml
  Growth Inhibition Zone, SA: 28 mm
[9]
  gram negative and positive activity (in words): potent gram negative and positive activity as compared to the commercially available antibacterial Ciprofloxacin

## 2-[4-(1-Cyclopropyl-3-carboxy-6,8-difluoro-1,4-dihydro-4-oxo-7-quinolinyl)-1-piperazinyl]2-butenedioic acid, dimethyl ester [Compound 1]
[2]
  Growth Inhibition Zone, EC: 31 millimeter
[3]
  Growth Inhibition zone, PA: 36 millimeter
[4]
  Growth Inhibition Zone, SA: 27 millimeter
[5]
  Growth Inhibition zone, KP: 31 millimeter
[6]; Conc 0.1 mg/ml
  Growth Inhibition Zone, EC: 30 mm
[6]; Conc 1 mg/ml
  Growth Inhibition Zone, EC: 35 mm
[7]
  Growth Inhibition zone, PA: 35 mm
[8]; Conc 0.1 mg/ml
  Growth Inhibition Zone, SA: 25 mm
[8]; Conc 1 mg/ml
  Growth Inhibition Zone, SA: 28 mm
[9]
  gram negative and positive activity (in words): potent gram negative and positive activity as compared to the commercially available antibacterial Ciprofloxacin
